From US6673368B2, “Colonic motor dysfunction remedies comprising aminothiazole derivatives as active ingredients” (Zeria Phamaceutical Co., Ltd., priority 2000, dated 2004)

Columns and labels:
[1] = system: large intestines of male dogs; assay: Effects on colonic motor activity (force transducers, conscious dogs, postcibal period); type: in vivo; conditions: dog; for Percent of motor index, large intestine: until 1 hour after administration, 30 minutes before administration = 100%; for Effect on colonic motility (in words): intraduodenal, doses of Table 1
From the text: (§1) Test 1 [Effects on Gastric and Colonic Motor Activity]
(§2) Force transducers (“F-12IS”, trade name; manufactured by Star Medical Technologies, Inc.) were chronically sutured in the gastric antrum and large intestines of male dogs (body weight: 9 to 11 kg, 5 to 6 dogs per group) (Itoh, Z. et al., Am. J. Dig. Dis. 22, 117-124, 1977). Contraction signals from the respective regions in postcibal period were amplified and recorded (“RTA-1200”, trade name; manufactured by Nihon Kohden Corporation). The contraction signals, which had been collected in a computer, were analyzed by using an analysis program (“DSSDDWHD V.30”, trade name; prepared by Nihon Kohden Corporation), whereby motor indexes were calculated. The test drugs were administered through catheters which had been chronically indwelled beforehand in the duodenum, respectively. Supposing that the coefficient of motor 30 minutes before the administration of drug was 100%, the results were calculated as percents of motor index until 1 hour after the administration.

[2] = system: gastric antrum of male dogs; assay: Effects on gastric motor activity (force transducers, conscious dogs, postcibal period); type: in vivo; conditions: dog, until 1 hour after administration, 30 minutes before administration = 100%
From the text: as §1, §2

male SD rats = assay: Effects on defecation in rats; type: in vivo, rat; conditions: 10 mg/kg intraperitoneal, dry stool weight until 60 minutes after administration, control average = 100%
Experimental: Test 2 [Effects on Defecation]
Test drugs were intraperitoneally administered to male SD rats (8 rats per group). Stools were recovered until 60 minutes after the administration, and their dry weights were measured. Supposing that that the average of stool weights in a control group was 100%, the averages of percent weights of individual test drug groups were calculated.

| SMILES | Percent of motor index, large intestine ([1]; 1 mg/kg intraduodenal) [%] | Effect on colonic motility (in words) [1] | Percent of motor index, gastric antrum ([2]; 1 mg/kg intraduodenal) [%] | Percent of motor index, large intestine ([1]; 10 mg/kg intraduodenal) [%] | Percent of motor index, gastric antrum ([2]; 10 mg/kg intraduodenal) [%] | Percent stool weight (male SD rats) [%] | Percent of motor index, large intestine ([1]; 3 mg/kg intraduodenal) [%] | Percent of motor index, gastric antrum ([2]; 3 mg/kg intraduodenal) [%] |
| --- | --- | --- | --- | --- | --- | --- | --- | --- |
| COc1cc(N)c(Cl)cc1C(=O)NC1CCN(CCCOc2ccc(F)cc2)CC1OC (stereo not drawn) [Cisapride, cisapride] | 114.5 | no significant effect | 158.7 |  |  |  |  |  |
| COc1cc(O)c(C(=O)Nc2nc(C(=O)NCCN(C(C)C)C(C)C)cs2)cc1OC.Cl.O.O.O [Compound 1, N-(N′,N′-diisopropylaminoethyl)-[2-(2-hydroxy-4,5-dimethoxybenzoylamino)-1,3-thiazol-4-yl]carboxamide HCL trihydrate] |  |  |  | 136.1 | 163.7 | 361.8 |  |  |
| CC(C)N(CCNC(=O)c1csc(NC(=O)c2cccc(C#N)c2)n1)C(C)C.Cl [Compound 2, N-(N′,N′-diisopropylaminoethyl)-[2-(3-cyanobenzoyl-amino)-1,3-thiazol-4-yl]carboxamide hydrochloride] |  |  |  | 221.7 | 189.5 | 766.7 |  |  |
| CC(C)N(CCNC(=O)c1csc(NC(=O)c2cccc(N)c2)n1)C(C)C [Compound 3, N-(N′,N′-diisopropylaminoethyl)-[2-(3-aminobenzoyl-amino)-1,3-thiazol-4-yl]carboxamide] |  |  |  | 249.9 | 244.6 | 733.3 |  |  |
| COc1ccc(C(=O)NCc2ccc(OCCN(C)C)cc2)cc1OC [Itopride, itopride] |  | no significant effect |  | 122.1 | 132.7 |  |  |  |
| CCOc1cc(N)c(Cl)cc1C(=O)NCC1CN(Cc2ccc(F)cc2)CCO1 (stereo not drawn) [Mosapride, mosapride] |  | no significant effect |  |  |  |  | 119.2 | 146.2 |
